Test results from patent US20260209247A1, “Substituted Tricyclic Compounds” (Lupin Limited, priority 2019, published 2026).

Assays:
[1] = target: T1, protein-protein interaction between hSOS1 and hKRASG12C (Homo sapiens, UniProt Q07889); test: KRAS-SOS1 interaction assay (HTRF); type: binding; conditions: GST-hSOS1 564-1049aa, HIS-hKRASG12C, read-out: KRAS-SOS1 Interaction inhibition IC50
T1 construct: GST-hSOS1, 564-1049aa expressed and purified in-house
T1 sequence (Q07889 564-1049): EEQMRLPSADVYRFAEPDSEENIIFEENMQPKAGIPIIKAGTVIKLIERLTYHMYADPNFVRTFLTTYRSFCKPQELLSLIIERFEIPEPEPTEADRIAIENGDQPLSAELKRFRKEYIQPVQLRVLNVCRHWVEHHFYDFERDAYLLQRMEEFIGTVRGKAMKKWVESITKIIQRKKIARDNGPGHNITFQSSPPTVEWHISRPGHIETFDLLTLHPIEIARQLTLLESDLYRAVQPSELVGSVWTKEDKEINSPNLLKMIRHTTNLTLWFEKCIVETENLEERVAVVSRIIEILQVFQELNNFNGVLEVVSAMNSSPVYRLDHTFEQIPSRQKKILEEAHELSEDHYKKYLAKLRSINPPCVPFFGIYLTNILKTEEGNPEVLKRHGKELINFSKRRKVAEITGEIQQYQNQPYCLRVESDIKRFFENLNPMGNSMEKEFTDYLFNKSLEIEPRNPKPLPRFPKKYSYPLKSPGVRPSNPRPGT
Experimental: Interaction assay was conducted to evaluate the ability of the compounds to disrupt the protein-protein interactions between hSOS1 and hKRASG12C. Inhibitory effect of compounds on GST-hSOS1, 564-1049aa expressed and purified in-house and HIS-hKRASG12C (R06-32DH, SignalChem) interaction was assessed using HTRF detection technology in biochemical assay. Compounds were pre-incubated with 10-50 nM working solution of hSOS1 per well of a 384 well plate (Perkin Elmer, Cat #6007290) for 10 min at 20° C. in the assay buffer containing 5 mM HEPES, pH 7.4, 150 mM NaCl, 10 mM EDTA, 1 mM DTT, 0.05% BSA fraction V and 0.0025% Igepal. Reaction was initiated by adding 100-300 nM working solution of hKRASG12C in assay buffer. Total assay volume was 15 μL. Reaction was continued for 30-60 min at 20° C. Then detection solution containing MAb Anti-GST-d2 (#61GSTDLA, Cisbio BioAssays) and MAb Anti-HIS-Tb (#61HISTLA, Cisbio BioAssays), all prepared in HTRF detection buffer (#61DB10RDF, Cisbio BioAssays) was added and further incubated for 30-60 min at 20° C. HTRF signal was recorded in PHERAStar microplate reader. Ratio of signal obtained at 665 nm and 620 nm was used to compute the percent inhibition of compound utilizing the following formula: […]

[2] = target: T2, nucleotide exchange on hKRASG12C mediated by hSOS1 (Homo sapiens, UniProt Q07889); test: Guanine nucleotide exchange assay (GNEA, HTRF); type: biochemical; conditions: HIS-hSOS1 564-1049aa mediated GTP loading onto GST-hKRASG12C 1-169aa, read-out: Guanine nucleotide exchange inhibition IC50
T2 construct: HIS-hSOS1, 564-1049aa mediated GTP loading onto GST-hKRASG12C; His (N); made in house
T2 sequence (Q07889 564-1049): T1 sequence (Q07889 564-1049)
Experimental: Example-154: Guanine nucleotide exchange assay (GNEA) GNEA assay was conducted to evaluate the effects of compounds on the nucleotide exchange on hKRASG12C mediated by hSOS1. Inhibitory effect of compounds on HIS-hSOS1, 564-1049aa mediated GTP loading onto GST-hKRASG12C, 1-169aa both expressed and purified in-house was assessed using HTRF detection technology in biochemical assay. Compounds were pre-incubated with hSOS1 working solution containing 10-50 nM hSOS1 and 200 nM EDA-GTP-DY-647P1 (Custom manufactured, Jena Biosciences) per well of a 384 well plate (Perkin Elmer, Cat #6007290) for 10 min at 20° C. in the assay buffer containing 10 mM HEPES, pH 7.4, 150 mM NaCl, 5 mM MgCl2, 1 mM DTT, 0.05% BSA fraction V and 0.0025% Igepal. Reaction was initiated by adding working solution of hKRASG12C containing 25-125 nM hKRASG12C and MAb Anti-GST-Tb (#61GSTTLA, Cisbio BioAssays) in assay buffer. Total assay volume was 15 μL. Reaction was continued for 30-60 min at 20° C. HTRF signal was recorded in PHERAStar microplate reader. Ratio of signal obtained at 665 nm and 620 nm was used to compute the percent inhibition of compound as follows.

[3] = test system: pERK after EGF stimulation in DLD1 cells; test: ERK phosphorylation assay (alphascreen pERK); type: cell-based; conditions: Homo sapiens, DLD-1, 2 h compound, 200 ng/ml hEGF for 5 minutes, read-out: ERK phosphorylation inhibition IC50
Outline: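 DLD1 cells pretreated with test compounds for 2 h, then stimulated with 200 ng/ml hEGF for 5 min. Lysates assayed by AlphaScreen SureFire for ERK1/2 p-T202/Y204, read after 2 h at 25–28 °C. % inhibition relative to the stimulated-minus-unstimulated vehicle window.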

Cc1nc(N[C@H](C)c2cccc(C(F)(F)CO)c2F)c2cc3c(cc2n1)O[C@@H](C)C(=O)N3C (single isomer, unassigned) [Compound 30a]
IC50 [1]: 1 to 10 nM
IC50 [2]: 1 to 30 nM
IC50 [3]: 1 to 200 nM

Cc1nc(N[C@H](C)c2cccc(C(F)(F)CO)c2F)c2cc3c(cc2n1)OC(C)C(=O)N3C (single isomer, unassigned) [Compound 30b]
IC50 [1]: 1 to 10 nM
IC50 [2]: 1 to 30 nM
IC50 [3]: 1 to 200 nM

Cc1nc(N[C@H](C)c2cccc(C(F)(F)C(C)(C)O)c2F)c2cc3c(cc2n1)O[C@@H](C)C(=O)N3C (single isomer, unassigned) [Compound 31a]
IC50 [1]: 1 to 10 nM
IC50 [2]: 1 to 30 nM
IC50 [3]: 1 to 200 nM

Cc1nc(N[C@H](C)c2cccc(C(F)(F)C(C)(C)O)c2F)c2cc3c(cc2n1)OC(C)C(=O)N3C (single isomer, unassigned) [Compound 31b]
IC50 [1]: 1 to 10 nM
IC50 [2]: 1 to 30 nM
IC50 [3]: 1 to 200 nM

Cc1nc(N[C@H](C)c2cccc(C(F)(F)C(C)(C)O)c2F)c2cc3c(cc2n1)OC(C(C)C)C(=O)N3C (single isomer, unassigned) [Compound 32b]
IC50 [1]: 1 to 10 nM
IC50 [2]: 1 to 30 nM
IC50 [3]: 1 to 200 nM

Cc1nc(N[C@H](C)c2cccc(C(F)(F)CO)c2F)c2cc3c(cc2n1)OC(C)CN3C (single isomer, unassigned) [Compound 36b]
IC50 [1]: 1 to 10 nM
IC50 [2]: 1 to 30 nM
IC50 [3]: 1 to 200 nM

COCC(C)(O)C(F)(F)c1cccc([C@@H](C)Nc2nc(C)nc3cc4c(cc23)N(C)C(=O)C(C)(C)O4)c1F (single isomer, unassigned) [Compound 53b]
IC50 [1]: 11 to 25 nM
IC50 [2]: 1 to 30 nM
IC50 [3]: 1 to 200 nM

Cc1nc(NC(C)c2cccc(C(F)(F)C(C)(C)O)c2)c2cc3c(cc2n1)C(C)(C)C(=O)N3C (single isomer, unassigned) [Compound 73, (R/S)-4-((1-(3-(1,1-difluoro-2-hydroxy-2-methylpropyl)phenyl)ethyl)amino)-2,6,8,8-tetramethyl-6,8-dihydro-7H-pyrrolo[2,3-g]quinazolin-7-one]
IC50 [1]: 1 to 10 nM
IC50 [2]: 1 to 30 nM
IC50 [3]: 1 to 200 nM

Cc1nc(N[C@H](C)c2cccc(C(F)(F)C(C)(O)CO)c2F)c2cc3c(cc2n1)C(C)(C)C(=O)N3C (single isomer, unassigned) [Compound 76a]
IC50 [1]: 1 to 10 nM
IC50 [2]: 1 to 30 nM
IC50 [3]: 1 to 200 nM

CC[C@]1(C)C(=O)N(C)c2cc3nc(C)nc(N[C@H](C)c4cccc(C(F)(F)C(C)(C)O)c4F)c3cc21 (single isomer, unassigned) [Compound 93a]
IC50 [1]: 1 to 10 nM
IC50 [2]: 31 to 130 nM
IC50 [3]: 1 to 200 nM

CCC1(C)C(=O)N(C)c2cc3nc(C)nc(N[C@H](C)c4cccc(C(F)(F)C(C)(C)O)c4F)c3cc21 (single isomer, unassigned) [Compound 93b]
IC50 [1]: 1 to 10 nM
IC50 [2]: 31 to 130 nM
IC50 [3]: 1 to 200 nM

COCC1(C)C(=O)N(C)c2cc3nc(C)nc(N[C@H](C)c4cccc(C(F)(F)C(C)(C)O)c4F)c3cc21 (single isomer, unassigned) [Compound 94a]
IC50 [1]: 1 to 10 nM
IC50 [2]: 1 to 30 nM
IC50 [3]: 1 to 200 nM

COCC1(C)C(=O)N(C)c2cc3c(N[C@H](C)c4cccc(C(F)(F)C(C)(C)O)c4F)nc(C)nc3cc21 (single isomer, unassigned) [Compound 98a]
IC50 [1]: 1 to 10 nM
IC50 [2]: 1 to 30 nM
IC50 [3]: 1 to 200 nM

CO[C@]1(C)C(=O)N(C)c2cc3c(N[C@H](C)c4cccc(C(F)(F)C(C)(C)O)c4F)nc(C)nc3cc21 (single isomer, unassigned) [Compound 101a]
IC50 [1]: 1 to 10 nM
IC50 [2]: 31 to 130 nM
IC50 [3]: 1 to 200 nM

CCOC1(C)C(=O)N(C)c2cc3c(N[C@H](C)c4cccc(C(F)(F)C(C)(C)O)c4F)nc(C)nc3cc21 (single isomer, unassigned) [Compound 121a]
IC50 [1]: 1 to 10 nM
IC50 [2]: 31 to 130 nM
IC50 [3]: 1 to 200 nM

COCC[C@]1(C)C(=O)N(C)c2cc3c(N[C@H](C)c4cccc(C(F)(F)C(C)(C)O)c4F)nc(C)nc3cc21 (single isomer, unassigned) [Compound 123a]
IC50 [1]: 1 to 10 nM
IC50 [2]: 1 to 30 nM
IC50 [3]: 1 to 200 nM

COC[C@](C)(O)C(F)(F)c1cccc([C@@H](C)Nc2nc(C)nc3cc4c(cc23)N(C)C(=O)C4(C)C)c1F (single isomer, unassigned) [Compound 127b]
IC50 [1]: 1 to 10 nM
IC50 [2]: 1 to 30 nM
IC50 [3]: 1 to 200 nM

Cc1nc(N[C@H](C)c2cccc(C(F)(F)C(C)(C)O)c2F)c2cc3c(cc2n1)[C@]1(CCOC1)C(=O)N3C (single isomer, unassigned) [Compound 128a]
IC50 [1]: 1 to 10 nM
IC50 [2]: 1 to 30 nM
IC50 [3]: 1 to 200 nM

Cc1nc(N[C@H](C)c2cccc(C(F)(F)C(C)(C)O)c2F)c2cc3c(cc2n1)C1(CCOC1)C(=O)N3C (single isomer, unassigned) [Compound 128b]
IC50 [1]: 1 to 10 nM
IC50 [2]: 31 to 130 nM
IC50 [3]: 1 to 200 nM

Cc1nc(N[C@H](C)c2cccc(C(F)(F)C(C)(O)CN(C)C)c2F)c2cc3c(cc2n1)C(C)(C)C(=O)N3C (single isomer, unassigned) [Compound 129a]
IC50 [1]: 1 to 10 nM
IC50 [2]: 1 to 30 nM
IC50 [3]: 1 to 200 nM

CNCC(C)(O)C(F)(F)c1cccc([C@@H](C)Nc2nc(C)nc3cc4c(cc23)N(C)C(=O)C4(C)C)c1F (single isomer, unassigned) [Compound 130a]
IC50 [1]: 1 to 10 nM
IC50 [2]: 1 to 30 nM
IC50 [3]: 1 to 200 nM

COCC[C@@]1(OC)C(=O)N(C)c2cc3c(N[C@H](C)c4cccc(C(F)(F)C(C)(C)O)c4F)nc(C)nc3cc21 (single isomer, unassigned) [Compound 132b]
IC50 [1]: 1 to 10 nM
IC50 [2]: 1 to 30 nM
IC50 [3]: 1 to 200 nM

COC1(C)C(=O)N(C)c2cc3c(N[C@H](C)c4cccc(C(F)(F)C(C)(O)CN(C)C)c4F)nc(C)nc3cc21 (single isomer, unassigned) [Compound 135]
IC50 [1]: 1 to 10 nM
IC50 [2]: 1 to 30 nM
IC50 [3]: 1 to 200 nM

Cc1nc(N[C@H](C)c2cc(N)cc(C(F)(F)F)c2)c2cc3c(cc2n1)OCC(=O)N3C [Compound 1, (R)-4-((1-(3-amino-5-(trifluoromethyl)phenyl)ethyl)amino)-2,6-dimethyl-6H-[1,4]oxazino[3,2-g]quinazolin-7(8H)-one]
IC50 [1]: 1 to 10 nM
IC50 [2]: 31 to 130 nM
IC50 [3]: 1 to 200 nM

Cc1nc(N[C@H](C)c2cccc(C(F)(F)CO)c2F)c2cc3c(cc2n1)OCC(=O)N3C [Compound 2, (R)-4-((1-(3-(1,1-difluoro-2-hydroxyethyl)-2-fluorophenyl)ethyl)amino)-2,6-dimethyl-6H-[1,4]oxazino[3,2-g]quinazolin-7(8H)-one]
IC50 [1]: 1 to 10 nM
IC50 [2]: 1 to 30 nM
IC50 [3]: 1 to 200 nM
